Test results taken from PubChem BioAssay (NCI).
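Grown in 96-well plates, cells were treated for 48 hours with each compound at five concentrations. Insufficient inhibition: endpoint recorded as highest concentration tested. GI50 marks 50% less growth. Definition used: TGI = concentration required for complete inhibition of growth.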

Tests used:
Experiment in all cases: NCI tumour cell line growth inhibition, 48 h
[1] = system: 786-0 renal
[2] = system: A498 renal
[3] = system: A549 NSCLC
[4] = system: ACHN renal
[5] = system: BT-549 breast
[6] = system: CAKI-1 renal
[7] = system: CCRF-CEM leukemia
[8] = system: COLO 205 colon
[9] = system: DU-145 prostate
[10] = system: EKVX NSCLC
[11] = system: HCC-2998 colon
[12] = system: HCT-116 colon
[13] = system: HCT-15 colon
[14] = system: HL-60(TB) leukemia
[15] = system: HOP-62 NSCLC
[16] = system: HOP-92 NSCLC
[17] = system: HS 578T breast
[18] = system: HT29 colon
[19] = system: IGROV1 ovarian
[20] = system: K-562 leukemia
[21] = system: KM12 colon
[22] = system: LOX IMVI melanoma
[23] = system: M14 melanoma
[24] = system: MALME-3M melanoma
[25] = system: MCF7 breast
[26] = system: MDA-MB-231 breast
[27] = system: MDA-MB-435
[28] = system: MDA-MB-468 breast
[29] = system: MOLT-4 leukemia
[30] = system: NCI-H226 lung
[31] = system: NCI-H23 lung
[32] = system: NCI-H460 lung
[33] = system: NCI-H522 lung
[34] = system: NCI/ADR-RES ovarian
[35] = system: OVCAR-3 ovarian
[36] = system: OVCAR-4 ovarian
[37] = system: OVCAR-5 ovarian
[38] = system: OVCAR-8 ovarian
[39] = system: PC-3 prostate
[40] = system: RPMI-8226 leukemia
[41] = system: RXF 393 renal
[42] = system: SF-268 CNS
[43] = system: SF-295 CNS
[44] = system: SF-539 CNS
[45] = system: SK-MEL-2 melanoma
[46] = system: SK-MEL-28 melanoma
[47] = system: SK-MEL-5 melanoma
[48] = system: SK-OV-3 ovarian
[49] = system: SN12C renal
[50] = system: SNB-19 CNS
[51] = system: SNB-75 CNS
[52] = system: SR leukemia
[53] = system: SW-620 colon
[54] = system: T-47D breast
[55] = system: TK-10 renal
[56] = system: U251 CNS
[57] = system: UACC-257 melanoma
[58] = system: UACC-62 melanoma
[59] = system: UO-31 renal

CC(=O)Nc1nc(-c2ccc(N3CCN(C)CC3)c(NS(=O)(=O)c3ccc(C(F)(F)F)cc3)c2)cs1
GI50 [1]: 5.18 µM | TGI [1]: 12.6 µM | GI50 [2]: 6.64 µM | TGI [2]: 13.5 µM | GI50 [3]: 7.24 µM | TGI [3]: 16.3 µM | GI50 [4]: 4.67 µM | TGI [4]: 11.1 µM | GI50 [5]: 5.83 µM | TGI [5]: 12.8 µM | GI50 [6]: 3.91 µM | TGI [6]: 11 µM | GI50 [7]: 1.97 µM | TGI [7]: 9.86 µM | GI50 [8]: 7.95 µM | TGI [8]: 18.7 µM | GI50 [9]: 6.51 µM | TGI [9]: 14.5 µM | GI50 [10]: 7.41 µM | TGI [10]: 14.5 µM | GI50 [11]: 7.51 µM | TGI [11]: 14.5 µM | GI50 [12]: 3.01 µM | TGI [12]: 11.9 µM | GI50 [13]: 3.18 µM | TGI [13]: 10.8 µM | GI50 [14]: 3.35 µM | TGI [14]: 19.1 µM | GI50 [15]: 9.06 µM | TGI [15]: 17.2 µM | GI50 [16]: 5.34 µM | TGI [16]: 14.1 µM | GI50 [17]: 5.77 µM | TGI [17]: 20.2 µM | GI50 [18]: 4.77 µM | TGI [18]: 16 µM | GI50 [19]: 6.41 µM | TGI [19]: 13 µM | GI50 [20]: 5.47 µM | TGI [20]: 53 µM | GI50 [21]: 7.55 µM | TGI [21]: 16.4 µM | GI50 [22]: 2.46 µM | TGI [22]: 8.87 µM | GI50 [23]: 7.25 µM | TGI [23]: 17.1 µM | GI50 [24]: 6.73 µM | TGI [24]: 13.5 µM | GI50 [25]: 2.58 µM | TGI [25]: 10.6 µM | GI50 [26]: 5.78 µM | TGI [26]: 12.4 µM | GI50 [27]: 4.08 µM | TGI [27]: 12.6 µM | GI50 [28]: 2.04 µM | TGI [28]: 7.95 µM | GI50 [29]: 5.34 µM | TGI [29]: 23.6 µM | GI50 [30]: 8.25 µM | TGI [30]: 19.1 µM | GI50 [31]: 8.11 µM | TGI [31]: 15.8 µM | GI50 [32]: 6.77 µM | TGI [32]: 14.8 µM | GI50 [33]: 3.62 µM | TGI [33]: 10.8 µM | GI50 [34]: 6.97 µM | TGI [34]: 21.6 µM | GI50 [35]: 3.06 µM | TGI [35]: 10.6 µM | GI50 [36]: 6.72 µM | TGI [36]: 14.6 µM | GI50 [37]: 7.63 µM | TGI [37]: 14.7 µM | GI50 [38]: 8.2 µM | TGI [38]: 23.9 µM | GI50 [39]: 6.33 µM | TGI [39]: 17.2 µM | GI50 [40]: 2.16 µM | TGI [40]: 53 µM | GI50 [41]: 2.61 µM | TGI [41]: 9.24 µM | GI50 [42]: 6.99 µM | TGI [42]: 16.4 µM | GI50 [43]: 6.51 µM | TGI [43]: 13.4 µM | GI50 [44]: 4.12 µM | TGI [44]: 10.8 µM | GI50 [45]: 7.27 µM | TGI [45]: 14.4 µM | GI50 [46]: 7.72 µM | TGI [46]: 14.7 µM | GI50 [47]: 6 µM | TGI [47]: 12.5 µM | GI50 [48]: 10 µM | TGI [48]: 19.6 µM | GI50 [49]: 6.19 µM | TGI [49]: 12.7 µM | GI50 [50]: 7.82 µM | TGI [50]: 14.8 µM | GI50 [51]: 2.44 µM | TGI [51]: 9.48 µM | GI50 [52]: 1.98 µM | TGI [52]: 37.6 µM | GI50 [53]: 3.21 µM | TGI [53]: 11.3 µM | GI50 [54]: 4.71 µM | TGI [54]: 13.2 µM | GI50 [55]: 7.04 µM | TGI [55]: 14 µM | GI50 [56]: 7.52 µM | TGI [56]: 15 µM | GI50 [57]: 6.76 µM | TGI [57]: 14 µM | GI50 [58]: 6.08 µM | TGI [58]: 12.6 µM | GI50 [59]: 6.13 µM | TGI [59]: 12.6 µM

CC1(C)CC[C@]2(C(=O)O)CC[C@]3(C)C(=CCC4[C@@]5(C)C[C@@H](O)[C@@H]6OC(c7ccc(F)cc7)OC[C@@]6(C)C5CC[C@]43C)C2C1 (stereo partly specified)
GI50 [1]: 7.56 µM | TGI [1]: 27.5 µM | GI50 [2]: 5.41 µM | TGI [2]: 20.1 µM | GI50 [3]: 2.81 µM | TGI [3]: 16.5 µM | GI50 [4]: 3.56 µM | TGI [4]: 32.5 µM | GI50 [5]: 4.34 µM | TGI [5]: 17.9 µM | GI50 [6]: 9.28 µM | TGI [6]: 26.3 µM | GI50 [7]: 3.58 µM | TGI [7]: 25.8 µM | GI50 [8]: 4.53 µM | TGI [8]: 17.9 µM | GI50 [9]: 5.23 µM | TGI [9]: > 100 µM | GI50 [10]: 3.14 µM | TGI [10]: 15.3 µM | GI50 [11]: 4.34 µM | TGI [11]: 14.8 µM | GI50 [12]: 3.5 µM | TGI [12]: 13.7 µM | GI50 [13]: 2.42 µM | TGI [13]: 11.6 µM | GI50 [14]: 2.29 µM | TGI [14]: 6.41 µM | GI50 [15]: 6.68 µM | TGI [15]: 29.6 µM | GI50 [16]: 5.32 µM | TGI [16]: 27.6 µM | GI50 [17]: 5.56 µM | TGI [17]: 48.5 µM | GI50 [18]: 5.09 µM | TGI [18]: 30.3 µM | GI50 [19]: 7.62 µM | TGI [19]: 24.9 µM | GI50 [20]: 2.26 µM | TGI [20]: > 100 µM | GI50 [21]: 4.2 µM | TGI [21]: 18.9 µM | GI50 [22]: 4.13 µM | TGI [22]: 16.2 µM | GI50 [23]: 10.7 µM | TGI [23]: 27 µM | GI50 [24]: 8.39 µM | TGI [24]: 22.9 µM | GI50 [25]: 4.03 µM | TGI [25]: 28.2 µM | GI50 [26]: 13 µM | TGI [26]: 28.7 µM | GI50 [27]: 10.8 µM | TGI [27]: 23.7 µM | GI50 [28]: 3.26 µM | TGI [28]: 19.5 µM | GI50 [29]: 2.64 µM | TGI [29]: 12 µM | GI50 [30]: 3.96 µM | TGI [30]: 23.5 µM | GI50 [31]: 4.95 µM | TGI [31]: 21.1 µM | GI50 [32]: 4.38 µM | TGI [32]: 18.1 µM | GI50 [33]: 5.21 µM | TGI [33]: 23.8 µM | GI50 [34]: 4.3 µM | TGI [34]: 22.8 µM | GI50 [35]: 4.13 µM | TGI [35]: 18.8 µM | GI50 [36]: 5.63 µM | TGI [36]: 38.4 µM | GI50 [37]: 13.3 µM | TGI [37]: 33.5 µM | GI50 [38]: 6.96 µM | TGI [38]: 40.2 µM | GI50 [39]: 4.18 µM | TGI [39]: > 100 µM | GI50 [40]: 4.35 µM | TGI [40]: > 100 µM | GI50 [41]: 6.66 µM | TGI [41]: 20.5 µM | GI50 [42]: 5.3 µM | TGI [42]: > 100 µM | GI50 [43]: 3.57 µM | TGI [43]: 15.9 µM | GI50 [44]: 6.71 µM | TGI [44]: 21.3 µM | GI50 [45]: 9.47 µM | TGI [45]: 24.2 µM | GI50 [46]: 12.5 µM | TGI [46]: 25.4 µM | GI50 [47]: 4.13 µM | TGI [47]: 16.2 µM | GI50 [48]: 11.6 µM | TGI [48]: 39.2 µM | GI50 [49]: 7.55 µM | TGI [49]: 30.2 µM | GI50 [50]: 7.35 µM | TGI [50]: > 100 µM | GI50 [51]: 2.05 µM | TGI [51]: 45.3 µM | GI50 [52]: 4.18 µM | TGI [52]: 37 µM | GI50 [53]: 6.54 µM | TGI [53]: 30.3 µM | GI50 [54]: 11.8 µM | TGI [54]: 95.9 µM | GI50 [55]: 10.1 µM | TGI [55]: > 100 µM | GI50 [56]: 3.54 µM | TGI [56]: 17 µM | GI50 [57]: 10.9 µM | TGI [57]: 31 µM | GI50 [58]: 11.4 µM | TGI [58]: 24.3 µM | GI50 [59]: 4.17 µM | TGI [59]: 21.7 µM
